These are literature values, as cited in patent US20250127693A1, “Materials for Desensitization and Targeted Drug Delivery to Teeth and Gums” (South Dakota Board of Regents, priority 2023, published 2025).

The subject of one data set is mammalian cells. As to conditions: prolonged exposures.

Regarding `C=CCc1ccc(O)c(OC)c1` [eugenol], the “concentration at which toxicity for mammalian cells starts” value in the data set with mammalian cells is 164 µg/mL. In the data set on cancerous cells, the “concentration at which eugenol inhibits proliferation of cancerous cells” value is 82 µg/mL.
